From PubChem BioAssay (NCI)
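Five concentrations, 48 hours, 96-well plates. Abbreviation: GI50, concentration required for 50% inhibition of growth. Definition used: TGI = concentration required for complete inhibition of growth.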

Assays:
Test in all cases: inhibition of tumour cell growth, NCI panel, 48 h
[1] = test system: A549 NSCLC
[2] = test system: ACHN renal
[3] = test system: CCRF-CEM leukemia
[4] = test system: COLO 205 colon
[5] = test system: HCC-2998 colon
[6] = test system: HCT-116 colon
[7] = test system: HL-60(TB) leukemia
[8] = test system: K-562 leukemia
[9] = test system: KM12 colon
[10] = test system: NCI-H226 lung
[11] = test system: SF-268 CNS
[12] = test system: UO-31 renal

## C[C@]12CC[C@@H]3c4ccc(O)cc4CC[C@H]3[C@@H]1CC[C@@H]2OC(=O)CCc1ccccc1
[1]
  TGI: 52.9 µM
[2]
  TGI: 35.5 µM
[3]
  TGI: 67.5 µM
[4]
  TGI: 37.1 µM
[5]
  TGI: 36.6 µM
[6]
  TGI: 48.4 µM
[7]
  TGI: 43.9 µM
[8]
  TGI: 33.9 µM
[9]
  TGI: 78.7 µM
[10]
  TGI: 36.8 µM
[11]
  TGI: 35.8 µM
[12]
  TGI: 33.8 µM

## COc1cc(C(=O)CC2OC(=O)C(Cl)=C2Cl)ccc1Cl (stereo unspecified)
[1]
  TGI: > 100 µM
[2]
  TGI: > 100 µM
[3]
  TGI: > 100 µM
[4]
  TGI: > 100 µM
[5]
  TGI: > 100 µM
[6]
  TGI: > 100 µM
[7]
  TGI: > 100 µM
[8]
  TGI: > 100 µM
[9]
  TGI: > 100 µM
[10]
  TGI: > 100 µM
[11]
  TGI: > 100 µM
[12]
  TGI: > 100 µM

## CO/N=C\c1cc(O)c(O)c(/C=N/OC)c1
[1]
  TGI: > 100 µM
[2]
  TGI: > 100 µM
[3]
  TGI: > 100 µM
[4]
  TGI: > 100 µM
[5]
  TGI: > 100 µM
[6]
  TGI: > 100 µM
[7]
  TGI: 99.3 µM
[8]
  TGI: > 100 µM
[9]
  TGI: > 100 µM
[10]
  TGI: 88.9 µM
[11]
  TGI: > 100 µM
[12]
  TGI: > 100 µM

## O=C1c2ccccc2C(=O)c2c(Nc3cc4c5c(ccc6c7ccc8c9c(cc(Nc%10cccc%11c%10C(=O)c%10ccccc%10C%11=O)c(c3c56)c97)-c3ccccc3C8=O)C(=O)c3ccccc3-4)cccc21
[1]
  TGI: > 100 µM
[2]
  TGI: > 100 µM
[4]
  TGI: > 100 µM
[6]
  TGI: > 100 µM
[8]
  TGI: > 100 µM
[9]
  TGI: > 100 µM
[10]
  TGI: > 100 µM
[11]
  TGI: 75.2 µM
[12]
  TGI: > 100 µM

## O=C(c1ccccc1)C1C(c2ccccc2)N1S(=O)(=O)c1ccccc1 (stereo unspecified)
[1]
  TGI: > 100 µM
[3]
  TGI: > 100 µM
[4]
  TGI: > 100 µM
[5]
  TGI: > 100 µM
[6]
  TGI: > 100 µM
[8]
  TGI: > 100 µM
[9]
  TGI: > 100 µM
[10]
  TGI: > 100 µM
[11]
  TGI: > 100 µM
[12]
  TGI: > 100 µM

## O=C1C=CC(=O)c2c(O)c(Br)c(Br)c(O)c21
[1]
  TGI: 41.5 µM
[2]
  TGI: 5.99 µM
[3]
  TGI: 3.92 µM
[4]
  TGI: 2.46 µM
[5]
  TGI: 35.2 µM
[6]
  TGI: 8.57 µM
[7]
  TGI: 2.21 µM
[8]
  TGI: 1.75 µM
[9]
  TGI: 16.7 µM
[10]
  TGI: 55.6 µM
[11]
  TGI: 38.3 µM
[12]
  TGI: 6.65 µM

## Cc1ccc(C2COc3cc(O)c(O)cc3C2)cc1 (stereo unspecified)
[1]
  TGI: 192 µM
[3]
  TGI: 12.3 µM
[4]
  TGI: 26.2 µM
[5]
  TGI: 172 µM
[6]
  TGI: 23.7 µM
[7]
  TGI: 8.27 µM
[8]
  TGI: 42.8 µM
[9]
  TGI: 127 µM
[10]
  TGI: 235 µM
[11]
  TGI: 49.3 µM
[12]
  TGI: 101 µM

## N#C/C(=C\c1ccc(Br)cc1)n1nnc2cc(Cl)c(Cl)cc21
[1]
  GI50: 3.1 µM
  TGI: > 100 µM
[2]
  GI50: 1.73 µM
  TGI: 3.24 µM
[3]
  GI50: 1.71 µM
  TGI: > 100 µM
[6]
  GI50: 1.43 µM
  TGI: 3.08 µM
[8]
  GI50: 2.31 µM
  TGI: > 100 µM
[9]
  GI50: 2.92 µM
  TGI: > 100 µM
[10]
  GI50: 3.59 µM
  TGI: > 100 µM
[11]
  GI50: 3.84 µM
  TGI: > 100 µM

## OCc1cc2ccncc2c2c1[nH]c1ccccc12
[1]
  TGI: 24.8 µM
[2]
  TGI: 15.9 µM
[3]
  TGI: > 100 µM
[4]
  TGI: 29.4 µM
[5]
  TGI: 22.1 µM
[6]
  TGI: 15.7 µM
[7]
  TGI: 24.9 µM
[8]
  TGI: > 100 µM
[9]
  TGI: > 100 µM
[10]
  TGI: 6.71 µM
[11]
  TGI: 34.2 µM
[12]
  TGI: 28 µM
